Experimental data: US12486269B2 (Aconcagua Bio, Inc., priority 2024, dated 2025)

Columns and labels:
Type in all cases: cell-based
[1] = biological target: T1, COS-7/AMY3 (human calcitonin receptor (CTR) and RAMP3) (Homo sapiens, UniProt O60896+P30988); test: Amylin Receptor cAMP Assay I; settings: values marked *: Amylin Receptor cAMP Assay I; COS-7/AMY3 cells, cAMP Hi-range kit, 30 min; read-out: Amylin Receptor cAMP Stimulation Activity: EC50
T1 construct: expressed in transfected cells; host or cells: COS-7
From the text: Amylin Receptor cAMP Assay I
AMYRs are heterodimers of the class B calcitonin (CT) G-protein-coupled receptor (CTR) and receptor activity-modifying proteins (RAMPs). All three RAMPs can interact with the CTR and form AMY1, AMY2, AMY3 with RAMP1, RAMP2 and RAMP3, respectively. Like other class B1 GPCRs, the CT receptor family is canonically coupled to Gs-mediated cAMP production, and measurement of cAMP accumulation has been the primary assay used to determine peptide selectivity and potency.
To optimize functional activity directed toward Gαs coupling, COS-7 cells were stably transfected with human calcitonin receptor (CTR) and RAMP3, simultaneously. 100×concentration of compound working solutions were prepared (Agilent Technologies Bravo) with 4-fold serial dilution in 384-well Echo LDV plate (Labcyte, Cat #LP-0200). 100 nL/well 100×concentration of compound working solutions were moved to 384-well white low volume plate (Greiner, Cat #784075) using Labcyte ECHO550. […]
After incubation, the cAMP assay signal was generated using cAMP Hi-range Kit (Cisbio). […] The samples were then incubated at room temperature for 1 hour protected from light. the fluorescence was read at 665 and 615 nm with Reader PerkinElmer EnVision. % Activity=100%×(mean RLU of test sample−mean RLU of vehicle control)/(mean RLU of MAX control−mean RLU of vehicle control)) Amylin Receptor cAMP Assay II

[2] = biological target: T2, human calcitonin receptor (CTR) (Homo sapiens, UniProt P30988); test: Calcitonin Receptor (CTR) cAMP Assay; settings: COS7-human CTR Clone #2 stable cell line, cAMP dynamic 2 kit, 30 min; read-out: Calcitonin Receptor cAMP Stimulation Activity: EC50
T2 construct: expressed in transfected cells; host or cells: COS-7 (COS7-human CTR Clone #2)
T2 sequence (P30988 25-474): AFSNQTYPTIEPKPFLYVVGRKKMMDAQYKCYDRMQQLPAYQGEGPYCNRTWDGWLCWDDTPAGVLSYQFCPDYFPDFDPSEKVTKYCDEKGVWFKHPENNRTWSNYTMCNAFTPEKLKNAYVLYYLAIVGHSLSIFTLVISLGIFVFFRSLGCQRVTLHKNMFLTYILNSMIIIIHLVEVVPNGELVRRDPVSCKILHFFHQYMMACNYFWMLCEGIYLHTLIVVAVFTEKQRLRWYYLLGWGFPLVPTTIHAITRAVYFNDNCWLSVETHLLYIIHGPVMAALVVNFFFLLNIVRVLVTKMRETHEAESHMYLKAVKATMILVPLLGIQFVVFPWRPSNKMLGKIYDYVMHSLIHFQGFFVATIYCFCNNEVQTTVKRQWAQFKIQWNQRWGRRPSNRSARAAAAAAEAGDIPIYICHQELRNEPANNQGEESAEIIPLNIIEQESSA
Summary of the method: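 cAMP accumulation was measured by HTRF cAMP dynamic 2 read at 665/615 nm, 1 h at room temperature, with results scaled between vehicle and positive control. Before detection, COS7-human CTR stable cells were stimulated 30 min at 37 °C with compound (4-fold dilutions) in IBMX-containing HBSS/HEPES/casein buffer.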

[3] = biological target: T1, COS-7/AMY3 (human calcitonin receptor (CTR) and RAMP3); test: Amylin Receptor cAMP Assay II; settings: values marked **: Amylin Receptor cAMP Assay II; COS-7/AMY3 cells, cAMP dynamic 2 kit, 30 min; read-out: Amylin Receptor cAMP Stimulation Activity: EC50
Summary of the method: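 Agonist-induced cAMP was quantified by HTRF ratio at 665/615 nm and expressed as % of the window from vehicle to MAX control. Stimulation lasted 30 min at 37 °C in HBSS/20 mM HEPES/0.5 mM IBMX/0.1% casein, using stable human CTR+RAMP3 (AMY3) COS-7 cells at 2000 per well.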

T1 sequence (O60896 24-148, one chain of several): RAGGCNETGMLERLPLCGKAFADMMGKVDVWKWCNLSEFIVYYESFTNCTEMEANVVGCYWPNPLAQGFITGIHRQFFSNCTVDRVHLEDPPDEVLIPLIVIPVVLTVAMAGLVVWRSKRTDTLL

Structure (SMILES) | EC50 [1] | EC50 [2] | EC50 [3]
COc1cccc2c1CC[C@H]2NC(=O)c1ccc(-c2c3c(nc(CCc4ccc(F)cc4)c2-c2noc(=O)[nH]2)[C@@H]2CCCN2C3=O)s1 [Compound 108, 5-((S)-2-(4-fluorophenethyl)-5-oxo-3-(5-oxo-4,5-dihydro-1,2,4-oxadiazol-3-yl)-7,8,9,9a-tetrahydro-5H-pyrido[2,3-a]pyrrolizin-4-yl)-N—((R)-4-methoxy-2,3-dihydro-1H-inden-1-yl)thiophene-2-carboxamide] | 121 nM | 2.42 nM | –
O=C1c2c(nc(CCc3ccc(F)cc3)c(-c3n[nH]c(=O)o3)c2-c2cc3ccnc(N[C@@H]4CCOc5c(F)cc(F)cc54)c3s2)C23CC(CN12)C3 [Compound 293, (R)-5-(4-(7-((6,8-difluorochroman-4-yl)amino)thieno[2,3-c]pyridin-2-yl)-2-(4-fluorophenethyl)-5-oxo-8,9-dihydro-5H,7H-8,9a-methanopyrido[2,3-a]pyrrolizin-3-yl)-1,3,4-oxadiazol-2(3H)-one] | – | 0.0485 nM | 2.68 nM
COc1cc(F)cc2c1CC[C@H]2Nc1nccc2cc(-c3c4c(nc(CCc5ccc(F)cc5)c3-c3n[nH]c(=O)o3)C35CC(CN3C4=O)C5)sc12 [Compound 294, (R)-5-(4-(7-((6-fluoro-4-methoxy-2,3-dihydro-1H-inden-1-yl)amino)thieno[2,3-c]pyridin-2-yl)-2-(4-fluorophenethyl)-5-oxo-5,7,8,9-tetrahydro-8,9a-methanopyrido[2,3-a]pyrrolizin-3-yl)-1,3,4-oxadiazol-2(3H)-one] | – | 0.0435 nM | 0.562 nM
Cc1cc2cc(-c3c4c(nc(CCc5ccc(F)cc5)c3-c3n[nH]c(=O)o3)C35CC(CN3C4=O)C5)sc2c(N[C@@H]2CCOc3c(F)cc(F)cc32)n1 [Compound 295, (R)-5-(4-(7-((6,8-difluorochroman-4-yl)amino)-5-methylthieno[2,3-c]pyridin-2-yl)-2-(4-fluorophenethyl)-5-oxo-8,9-dihydro-5H,7H-8,9a-methanopyrido[2,3-a]pyrrolizin-3-yl)-1,3,4-oxadiazol-2(3H)-one] | – | 0.0289 nM | 1.21 nM
COc1c(F)ccc2c1CC(F)(F)[C@H]2Nc1nc(C)cc2cc(-c3c4c(nc(CCc5ccc(F)cc5)c3-c3n[nH]c(=O)o3)C35CC(CN3C4=O)C5)sc12 [Compound 296, (S)-5-(2-(4-fluorophenethyl)-4-(5-methyl-7-((2,2,5-trifluoro-4-methoxy-2,3-dihydro-1H-inden-1-yl)amino)thieno[2,3-c]pyridin-2-yl)-5-oxo-8,9-dihydro-5H,7H-8,9a-methanopyrido[2,3-a]pyrrolizin-3-yl)-1,3,4-oxadiazol-2(3H)-one] | – | 0.0164 nM | 0.272 nM
O=C1c2c(nc(CCc3ccc(F)cc3)c(-c3n[nH]c(=O)o3)c2-c2cc3cc(C(F)F)nc(N[C@@H]4CCOc5c(F)cc(F)cc54)c3s2)C23CC(CN12)C3 [Compound 297, (R)-5-(4-(7-((6,8-difluorochroman-4-yl)amino)-5-(difluoromethyl)thieno[2,3-c]pyridin-2-yl)-2-(4-fluorophenethyl)-5-oxo-8,9-dihydro-5H,7H-8,9a-methanopyrido[2,3-a]pyrrolizin-3-yl)-1,3,4-oxadiazol-2(3H)-one] | – | 0.0413 nM | 1.07 nM
COc1cc(F)cc2c1CC[C@H]2Nc1nc(C)cc2cc(-c3c4c(nc(CCc5ccc(F)cc5)c3-c3n[nH]c(=O)o3)C35CC(CN3C4=O)C5)sc12 [Compound 298, (R)-5-(4-(7-((6-fluoro-4-methoxy-2,3-dihydro-1H-inden-1-yl)amino)-5-methylthieno[2,3-c]pyridin-2-yl)-2-(4-fluorophenethyl)-5-oxo-8,9-dihydro-5H,7H-8,9a-methanopyrido[2,3-a]pyrrolizin-3-yl)-1,3,4-oxadiazol-2(3H)-one] | – | 0.0212 nM | 0.747 nM
COc1c(F)c(F)cc2c1CC[C@H]2Nc1nc(C)cc2cc(-c3c4c(nc(CCc5ccc(F)cc5)c3-c3n[nH]c(=O)o3)[C@@H]3CCCN3C4=O)sc12 [Compound 299, 5-((S)-4-(7-(((R)-5,6-difluoro-4-methoxy-2,3-dihydro-1H-inden-1-yl)amino)-5-methylthieno[2,3-c]pyridin-2-yl)-2-(4-fluorophenethyl)-5-oxo-7,8,9,9a-tetrahydro-5H-pyrido[2,3-a]pyrrolizin-3-yl)-1,3,4-oxadiazol-2(3H)-one] | – | 0.0172 nM | 0.363 nM
COc1c(F)ccc2c1CC[C@H]2Nc1nc(C)cc2cc(-c3c4c(nc(CCc5cccc(F)c5)c3-c3n[nH]c(=O)o3)C35CC(CN3C4=O)C5)sc12 [Compound 300, (R)-5-(4-(7-((5-fluoro-4-methoxy-2,3-dihydro-1H-inden-1-yl)amino)-5-methylthieno[2,3-c]pyridin-2-yl)-2-(3-fluorophenethyl)-5-oxo-8,9-dihydro-5H,7H-8,9a-methanopyrido[2,3-a]pyrrolizin-3-yl)-1,3,4-oxadiazol-2(3H)-one] | – | 0.016 nM | 0.362 nM
COc1c(F)ccc2c1C[C@@H](F)[C@H]2Nc1nc(C)cc2cc(-c3c4c(nc(CCc5ccc(F)cc5)c3-c3n[nH]c(=O)o3)[C@@H]3CCCN3C4=O)sc12 [Compound 301, 5-((S)-4-(7-(((1S,2R)-2,5-difluoro-4-methoxy-2,3-dihydro-1H-inden-1-yl)amino)-5-methylthieno[2,3-c]pyridin-2-yl)-2-(4-fluorophenethyl)-5-oxo-7,8,9,9a-tetrahydro-5H-pyrido[2,3-a]pyrrolizin-3-yl)-1,3,4-oxadiazol-2(3H)-one] | – | 0.0551 nM | 0.857 nM
COc1c(F)ccc2c1CC[C@H]2Nc1nc(C)cc2cc(-c3c4c(nc(CCc5ccc(F)cc5)c3-c3n[nH]c(=O)o3)C(C3CC3)NC4=O)sc12 (stereo partly drawn) [Compound 302, 5-(7-cyclopropyl-4-(7-(((R)-5-fluoro-4-methoxy-2,3-dihydro-1H-inden-1-yl)amino)-5-methylthieno[2,3-c]pyridin-2-yl)-2-(4-fluorophenethyl)-5-oxo-6,7-dihydro-5H-pyrrolo[3,4-b]pyridin-3-yl)-1,3,4-oxadiazol-2(3H)-one] | – | 0.134 nM | 3.97 nM
COc1c(F)ccc2c1CC(F)(F)[C@H]2Nc1nc(C)cc2cc(-c3c4c(nc(CCc5ccc(F)cc5)c3-c3n[nH]c(=O)o3)[C@@H]3CCCN3C4=O)sc12 [Compound 303, 5-((S)-2-(4-fluorophenethyl)-4-(5-methyl-7-(((S)-2,2,5-trifluoro-4-methoxy-2,3-dihydro-1H-inden-1-yl)amino)thieno[2,3-c]pyridin-2-yl)-5-oxo-7,8,9,9a-tetrahydro-5H-pyrido[2,3-a]pyrrolizin-3-yl)-1,3,4-oxadiazol-2(3H)-one] | – | 0.0337 nM | 0.695 nM
